# Test results taken from US20140303092A1 (CHIMERIX, INC., priority 2011, published 2014).
# Experiment: Study HDP-CDV-201: safety and tolerability (adverse events, laboratory abnormalities, discontinuations)
# Type: in vivo, human (adult allogeneic HSCT recipients)
# Protocol: Clinical Studies of HDP-CDV were performed and described in detail in the following Examples. For example, HDP-CDV-201 is a placebo-controlled, dose-escalating trial in HSCT CMV (R+) recipients, evaluating the ability of HDP-CDV to prevent or control CMV infection was carried out. Five cohorts were established in which participants or subjects received either placebo or the HDP-CDV orally, in doses ranging from 40 mg weekly (QW) to 200 mg twice weekly (BIW). Subjects who were post-HSCT were enrolled at the time of engraftment and randomized to HDP-CDV or placebo (3 to 1 ratio) and received blinded therapy until approximately 100 day post-transplantation. HDP-CDV doses were 40 mg QW, 100 mg QW, 200 mg QW, 200 mg BIW and 100 mg BIW. Escalation to the next dose was decided by the data monitoring committee after review of the safety data from the previous Cohort. Subjects who developed CMV disease or CMV infection requiring pre-emptive therapy with local standard of care were discontinued from blinded therapy and followed for 4 weeks. Subjects who completed treatment with blinded therapy were followed for 8 weeks post-therapy.
# Data from Study HDP-CDV-201 also provided characterization of the safety and tolerability profile of HDP-CDV when administered for the prevention or control of CMV infection in high risk (R^+) post-HSCT adult subjects.
# The Safety population (SAFETY) included all randomized subjects who took at least one dose of study treatment. This population was used to summarize safety outcomes based on the treatment actually received, in cases where a subject was treated contrary to the randomization schedule.
# The safety and tolerability profile of HDP-CDV, including subject demographics and Baseline characteristics; the AE profile; and laboratory abnormalities of interest were analyzed in the cohorts followed in this investigation.
# Subjects completing the treatment period received a full course of study medication; those completing the entire study attended visits through 8 weeks of follow up. Subjects who discontinued treatment may have done so for protocol specified reasons (e.g. development of clinically significant CMV infection requiring preemptive treatment with excluded anti-CMV medications) or for other reasons (e.g., withdrawal, adverse events, loss to follow-up). The disposition of subjects in Study HDP-CDV-201 during the double-blind, placebo-controlled treatment period (through Week 11) is listed by dosing Cohort in TABLE 23.
# Adverse events were examined by severity to ensure that all safety signals were identified in this study population. Because of the frequency of events in HSCT recipients, particular attention was given to evaluation of Grade 3 […], 4 (severe), and 5 (fatal) adverse events.
# Only those preferred terms for which at least one Grade 3 or higher event was experienced in any treatment group are listed. Cytomegalovirus-related AEs are excluded from this analysis.
# HDP-CDV is a lipid conjugate of CDV. Because CDV is known to have adverse effects on renal function and bone marrow, decreased GFR and persistent neutropenia were identified as AEs of special interest. Key renal and hematological (TABLE 30) laboratory parameters were measured and listed below by Study HDP-CDV-201 treatment groups. TABLE 30 includes abnormal levels of serum creatinine, neutrophils, platelets, WBCs, and hemoglobin and includes data at Screening and during the treatment period.
# A common metric for unit based dosing of medications is by weight (mg/kg). When the distribution of weights was examined for all subjects participating in the study, the median was 78 kg and the lower 25th percentile weight was approximately 65 kg, which translates to a cut-off of ˜3 mg/kg for a 200 mg total weekly dose. Based upon this approach, a cut-off of 3 mg/kg was used to assess the frequency of diarrhea and associated GI AEs reported for the subjects in Cohorts 3 or 4a (TABLE 40).
smiles,measurement,setting,value
CCCCCCCCCCCCCCCCOCCCOP(=O)(O)COC(CO)Cn1ccc(N)nc1=O (stereo not drawn) [HDP-CDV],"TEAE Hypokalaemia, Grade 3",100 mg BIW,2 (4.0%)
same,"TEAE Hypokalaemia, Grade 4",100 mg BIW,0
same,"TEAE Hypokalaemia, Grade 5",100 mg BIW,0
same,"TEAE Hyponatraemia, Frequency",100 mg BIW,1 (2.0%)
same,"TEAE Hyponatraemia, Grade 2",100 mg BIW,0
same,"TEAE Hyponatraemia, Grade 3",100 mg BIW,0
same,"TEAE Hyponatraemia, Grade 4",100 mg BIW,0
same,"TEAE Hyponatraemia, Grade 5",100 mg BIW,0
same,"TEAE LFT Abnormal, Frequency",100 mg BIW,2 (4.0%)
same,"TEAE LFT Abnormal, Grade 2",100 mg BIW,1 (2.0%)
same,"TEAE LFT Abnormal, Grade 3",100 mg BIW,0
same,"TEAE LFT Abnormal, Grade 4",100 mg BIW,0
same,"TEAE LFT Abnormal, Grade 5",100 mg BIW,0
same,"TEAE Leukocytosis, Frequency",100 mg BIW,2 (4.0%)
same,"TEAE Leukocytosis, Grade 2",100 mg BIW,0
same,"TEAE Leukocytosis, Grade 3",100 mg BIW,1 (2.0%)
same,"TEAE Leukocytosis, Grade 4",100 mg BIW,0
same,"TEAE Leukocytosis, Grade 5",100 mg BIW,0
same,"TEAE Nausea, Frequency",100 mg BIW,17 (34.0%)
same,"TEAE Nausea, Grade 2",100 mg BIW,9 (18.0%)
same,"TEAE Nausea, Grade 3",100 mg BIW,2 (4.0%)
same,"TEAE Nausea, Grade 4",100 mg BIW,0
same,"TEAE Nausea, Grade 5",100 mg BIW,0
same,"TEAE Neutropenia, Frequency",100 mg BIW,10 (20.0%)
same,"TEAE Neutropenia, Grade 2",100 mg BIW,2 (4.0%)
same,"TEAE Neutropenia, Grade 3",100 mg BIW,5 (10.0%)
same,"TEAE Neutropenia, Grade 4",100 mg BIW,2 (4.0%)
same,"TEAE Neutropenia, Grade 5",100 mg BIW,0
same,"TEAE Pneumonia, Frequency",100 mg BIW,5 (10.0%)
same,"TEAE Pneumonia, Grade 2",100 mg BIW,1 (2.0%)
same,"TEAE Pneumonia, Grade 3",100 mg BIW,3 (6.0%)
same,"TEAE Pneumonia, Grade 4",100 mg BIW,0
same,"TEAE Pneumonia, Grade 5",100 mg BIW,1 (2.0%)
same,"TEAE Pyrexia, Frequency",100 mg BIW,10 (20.0%)
same,"TEAE Pyrexia, Grade 2",100 mg BIW,4 (8.0%)
same,"TEAE Pyrexia, Grade 3",100 mg BIW,1 (2%)
same,"TEAE Pyrexia, Grade 4",100 mg BIW,0
same,"TEAE Pyrexia, Grade 5",100 mg BIW,0
same,"TEAE Renal Failure, Frequency",100 mg BIW,5 (10.0%)
same,"TEAE Renal Failure, Grade 2",100 mg BIW,1 (2.0%)
same,"TEAE Renal Failure, Grade 3",100 mg BIW,1 (2.0%)
same,"TEAE Renal Failure, Grade 4",100 mg BIW,1 (2.0%)
same,"TEAE Renal Failure, Grade 5",100 mg BIW,0
same,"TEAE Staphylococcal Bacteremia, Frequency",100 mg BIW,6 (12.0%)
same,"TEAE Staphylococcal Bacteremia, Grade 2",100 mg BIW,2 (4.0%)
same,"TEAE Staphylococcal Bacteremia, Grade 3",100 mg BIW,3 (6.0%)
same,"TEAE Staphylococcal Bacteremia, Grade 4",100 mg BIW,0
same,"TEAE Staphylococcal Bacteremia, Grade 5",100 mg BIW,0
same,"TEAE Thrombocytopenia, Frequency",100 mg BIW,7 (14.0%)
same,"TEAE Thrombocytopenia, Grade 2",100 mg BIW,1 (2.0%)
same,"TEAE Thrombocytopenia, Grade 3",100 mg BIW,1 (2.0%)
same,"TEAE Thrombocytopenia, Grade 4",100 mg BIW,2 (4.0%)
same,"TEAE Thrombocytopenia, Grade 5",100 mg BIW,0
same,"TEAE Vomiting, Frequency",100 mg BIW,22 (44.0%)
same,"TEAE Vomiting, Grade 2",100 mg BIW,8 (16.0%)
same,"TEAE Vomiting, Grade 3",100 mg BIW,2 (4.0%)
same,"TEAE Vomiting, Grade 4",100 mg BIW,0
same,"TEAE Vomiting, Grade 5",100 mg BIW,0
same,subjects requiring treatment with steroids during the study,100 mg BIW,72%
same,subjects who interrupted HDP-CDV due to an adverse event,100 mg BIW Cohort,17 out of 50
same,Subjects Reporting Diarrhea as an AE,"100 mg BIW, n = 50",26 (52.0%)
same,Discontinuation: Death,"100 mg BIW, active treatment period",4 (8.0%) Subject n (%)
same,Discontinuation: Adverse event,"100 mg BIW, active treatment period through Week 11",8 (16.0%) Subject n (%)
same,"TEAE ALT increased, Frequency",100 mg QW,1 (3.7%)
same,"TEAE ALT increased, Grade 2",100 mg QW,0
same,"TEAE ALT increased, Grade 3",100 mg QW,1 (3.7%)
same,"TEAE ALT increased, Grade 4",100 mg QW,0
same,"TEAE ALT increased, Grade 5",100 mg QW,0
same,"TEAE AML, Recurrent, Frequency",100 mg QW,0
same,"TEAE AML, Recurrent, Grade 2",100 mg QW,0
same,"TEAE AML, Recurrent, Grade 3",100 mg QW,0
same,"TEAE AML, Recurrent, Grade 4",100 mg QW,0
same,"TEAE AML, Recurrent, Grade 5",100 mg QW,0
same,"TEAE AST increased, Frequency",100 mg QW,1 (3.7%)
same,"TEAE AST increased, Grade 2",100 mg QW,1 (3.7%)
same,"TEAE AST increased, Grade 3",100 mg QW,0
same,"TEAE AST increased, Grade 4",100 mg QW,0
same,"TEAE AST increased, Grade 5",100 mg QW,0
same,"TEAE Abdominal pain, Frequency",100 mg QW,2 (7.4%)
same,"TEAE Abdominal pain, Grade 2",100 mg QW,0
same,"TEAE Abdominal pain, Grade 3",100 mg QW,1 (3.7%)
same,"TEAE Abdominal pain, Grade 4",100 mg QW,0
same,"TEAE Abdominal pain, Grade 5",100 mg QW,0
same,"TEAE Acute GVHD, Frequency",100 mg QW,7 (25.5%)
same,"TEAE Acute GVHD, Grade 2",100 mg QW,4 (14.8%)
same,"TEAE Acute GVHD, Grade 3",100 mg QW,2 (7.3%)
same,"TEAE Arthralgias, Frequency",100 mg QW,3 (11.1%)
same,"TEAE Arthralgias, Grade 2",100 mg QW,0
same,"TEAE Arthralgias, Grade 3",100 mg QW,0
same,"TEAE Arthralgias, Grade 4",100 mg QW,0
same,"TEAE Arthralgias, Grade 5",100 mg QW,0
same,"TEAE Back Pain, Frequency",100 mg QW,2 (7.4%)
same,"TEAE Back Pain, Grade 2",100 mg QW,0
same,"TEAE Back Pain, Grade 3",100 mg QW,0
same,"TEAE Back Pain, Grade 4",100 mg QW,0
same,"TEAE Back Pain, Grade 5",100 mg QW,0
same,"TEAE Decreased appetite, Frequency",100 mg QW,5 (18.5%)
same,"TEAE Decreased appetite, Grade 2",100 mg QW,2 (7.4%)
same,"TEAE Decreased appetite, Grade 3",100 mg QW,0
same,"TEAE Decreased appetite, Grade 4",100 mg QW,0
same,"TEAE Decreased appetite, Grade 5",100 mg QW,0
same,"TEAE Diarrhea, Frequency",100 mg QW,8 (29.6%)
same,"TEAE Diarrhea, Grade 2",100 mg QW,3 (11.1%)
same,"TEAE Diarrhea, Grade 3",100 mg QW,0
same,"TEAE Diarrhea, Grade 4",100 mg QW,0
same,"TEAE Diarrhea, Grade 5",100 mg QW,0
same,"TEAE Fatigue, Frequency",100 mg QW,3 (11.1%)
same,"TEAE Fatigue, Grade 2",100 mg QW,0
same,"TEAE Fatigue, Grade 3",100 mg QW,0
same,"TEAE Fatigue, Grade 4",100 mg QW,0
same,"TEAE Fatigue, Grade 5",100 mg QW,0
